Test results: patent publication US9834550B2, “Pyridopyrimidinone compounds for modulating the catalytic activity of histone lysine demethylases (KDMs)” (Dong-A Socio Holdings Co., Ltd., priority 2014, dated 2017)

What follows are molecules tested against T1, Recombinant human JARID1B/KDM5B (Homo sapiens, UniProt Q9UGL1) (assay: LANCE Ultra TR-FRET demethylase assay with FLAG-tagged JARID1B). Conditions: 100 nM compound; 500 nM biotinylated H3K4me3 peptide substrate.
T1 construct: purchased Active Motif 31432; host or cells: Sf9 insect cells
Format: biochemical
Excerpt: FLAG-tagged JARID1B (also known as KDM5B) protein was screened against more than 170 compounds. For this compound screening, LANCE Ultra time-resolved fluorescence resonance energy transfer (TR-FRET) assay was employed using an europoium (Eu)-labeled antibody that can specifically recognize mono- or dimethylated peptides (H3K4me2/1) and ULight-streptavidin (ULight-SA), a small molecule fluorescent dye. When irradiated at 340 nm, the energy from the Eu donor is transferred to the ULight acceptor dye which, in turn, emits light primarily at 665 nm. The ratio between the intensity of primary emission at 665 nm and that of secondary emission at 590 nm was used to quantify the level of lysine methylation. As JARID1B removes more methyl moieties from tri-methylated substrate peptides (H3K4me3), the ratio increases until the enzyme reaction is terminated. In case, therefore, the compounds disrupt the enzymatic activity completely, the ratio becomes equal to a background value.
Recombinant human JARID1B/KDM5B (accession number NP_006609) of molecular weight 179.9 KDa was expressed in Sf9 insect cells and contains an N-terminal FLAG tag. The enzyme was obtained from Active Motif (Catalog No. 31432). The tri-methylated histone substrate peptide of purity greater than 95% was a synthetic peptide in which the first 21 amino acids correspond to the human histone H3 sequence with three extra amino acids and a biotin motif (GGK-biotin) linked to the C-terminus [sequence: ART-K (Me3)-QTARKSTGGKAPRKQLA-GGK-biotin-OH], (AnaSpec, Fremont, Calif. Catalog. No. ANA-1413). The reference inhibitory compound tranylcypromine (or trans-2-phenylcyclopropylamine hydrochloride, also known as, 2-PCPA) was purchased from Sigma (St. Louis, Mo. Cat. no. P8511). ULight-labeled streptavidin (ULight-SA, Catalog no. TRF0102), Eu-W1024-labeled anti-methyl-Histone H3 Lysine 4 (H3K4me1-2) Antibody (Catalog no. TRF0402), and LANCE detection buffer 10× (Catalog no. CR97-100) were obtained from PerkinElmer (Montreal, Quebec, Canada). The TR-FRET experiments were carried out in white, low-volume 384-wellplates purchased from PerkinElmer (ProxiPlate-384 Plus, Catalog no. 6008280).
The TR-FRET signal was measured in the presence both of the bio-H3K4me3 peptide and FLAG-JARID1B by detecting any H3K4me2/1 peptide produced in the assay system. Assays using only the bio-H3K4me2 peptide were served as a positive control. Robust enzymatic progressions were observed by using JARID1B at concentrations ranging from 10 to 30 nM. In a typical TR-FRET experiment, JARID1B was pre-incubated with or without 20 uM, 1 uM, or 0.1 uM of test-compounds (containing 1% DMSO final) for […]. The enzymatic reactions were initiated by the addition of 500 nM biotinylated H3K4me3 peptide substrate plus 500 uM of 2-OG, 25 uM Fe(II) and 2 mM ascorbate. The reaction buffer also contained 50 mM Hepes (pH7.5), 0.01% (v/v) Tween 20, and 50 mM NaCl. The reaction mixture was incubated for […] at room temperature before reading on an EnVision plate reader (PerkinElmer, Waltham, Mass.).

T1 sequence (Q9UGL1 whole entry): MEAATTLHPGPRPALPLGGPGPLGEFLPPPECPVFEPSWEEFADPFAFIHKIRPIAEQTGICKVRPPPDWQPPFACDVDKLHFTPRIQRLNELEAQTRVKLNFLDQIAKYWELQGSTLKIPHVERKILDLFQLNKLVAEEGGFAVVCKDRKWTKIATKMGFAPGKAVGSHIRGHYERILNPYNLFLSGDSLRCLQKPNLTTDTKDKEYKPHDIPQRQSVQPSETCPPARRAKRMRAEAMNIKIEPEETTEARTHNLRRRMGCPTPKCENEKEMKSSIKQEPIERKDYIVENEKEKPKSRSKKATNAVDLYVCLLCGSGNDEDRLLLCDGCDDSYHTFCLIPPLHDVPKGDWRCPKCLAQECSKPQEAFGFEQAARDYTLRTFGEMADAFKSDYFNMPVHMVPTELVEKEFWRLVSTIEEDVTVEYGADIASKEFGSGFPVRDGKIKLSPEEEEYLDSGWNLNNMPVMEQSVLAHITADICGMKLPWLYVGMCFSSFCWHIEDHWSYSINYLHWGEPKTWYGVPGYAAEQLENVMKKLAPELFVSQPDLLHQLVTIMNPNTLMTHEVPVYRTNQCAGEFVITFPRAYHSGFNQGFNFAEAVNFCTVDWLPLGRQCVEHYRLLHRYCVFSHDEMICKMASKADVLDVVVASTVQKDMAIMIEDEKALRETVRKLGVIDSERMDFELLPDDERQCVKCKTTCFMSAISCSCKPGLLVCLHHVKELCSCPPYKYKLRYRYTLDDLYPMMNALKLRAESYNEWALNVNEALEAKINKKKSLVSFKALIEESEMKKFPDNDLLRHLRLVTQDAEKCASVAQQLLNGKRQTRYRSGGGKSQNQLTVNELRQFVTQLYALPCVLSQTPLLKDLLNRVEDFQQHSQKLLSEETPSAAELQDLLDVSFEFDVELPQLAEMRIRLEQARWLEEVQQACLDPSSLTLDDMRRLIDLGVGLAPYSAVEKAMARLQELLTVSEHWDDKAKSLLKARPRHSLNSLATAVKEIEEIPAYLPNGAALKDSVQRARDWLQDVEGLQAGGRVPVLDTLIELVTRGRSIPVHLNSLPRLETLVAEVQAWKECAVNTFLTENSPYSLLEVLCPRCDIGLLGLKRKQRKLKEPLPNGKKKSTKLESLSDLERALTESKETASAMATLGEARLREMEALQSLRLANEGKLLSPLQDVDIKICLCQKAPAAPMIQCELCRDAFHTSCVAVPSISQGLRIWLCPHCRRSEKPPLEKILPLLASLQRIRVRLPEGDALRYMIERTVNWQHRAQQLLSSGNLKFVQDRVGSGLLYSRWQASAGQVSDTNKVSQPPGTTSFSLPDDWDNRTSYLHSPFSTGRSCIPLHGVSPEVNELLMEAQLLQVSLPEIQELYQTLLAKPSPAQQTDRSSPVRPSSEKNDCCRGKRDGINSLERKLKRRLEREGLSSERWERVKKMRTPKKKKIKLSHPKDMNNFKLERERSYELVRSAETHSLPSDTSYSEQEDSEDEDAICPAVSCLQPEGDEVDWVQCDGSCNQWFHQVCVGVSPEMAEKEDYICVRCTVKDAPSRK

Row | inhibition at 0.1 µM [%] | SMILES
1 | > 50 | CCN1CCC(CNCc2nccc3c(=O)[nH]c(COc4ccc(Cc5ccccc5)cc4)nc23)C1 (centres unmarked) [Example 142, 2-((4-benzylphenoxy)methyl)-8-((((1-ethylpyrrolidin-3-yl)methyl)amino)methyl)pyrido[3,4-d]pyrimidin-4(3H)-one]
2 | 20 to 50 | O=c1[nH]c(COc2ccc(Cc3ccccc3)cc2)nc2c(CNCCCCN3CCCC3)nccc12 [Example 143, 2-((4-benzylphenoxy)methyl)-8-(((4-(pyrrolidin-1-yl)butyl)amino)methyl)pyrido[3,4-d]pyrimidin-4(3H)-one]
3 | 20 to 50 | CCN1CCC[C@@H]1CNCc1nccc2c(=O)[nH]c(COc3ccc(Cc4ccccc4)cc3)nc12 [Example 145, (R)-2-((4-benzylphenoxy)methyl)-8-((((1-ethylpyrrolidin-2-yl)methyl)amino)methyl)pyrido[3,4-d]pyrimidin-4(3H)-one]
4 | 20 to 50 | CCN1CCC[C@H]1CNCc1nccc2c(=O)[nH]c(COc3ccc(Cc4ccccc4)cc3)nc12 [Example 146, (S)-2-((4-benzylphenoxy)methyl)-8-((((1-ethylpyrrolidin-2-yl)methyl)amino)methyl)pyrido[3,4-d]pyrimidin-4(3H)-one]
5 | > 50 | O=c1[nH]c(COc2ccc(Cc3ccccc3)cc2)nc2c(CNCC3CNC3)nccc12 [Example 147, 8-(((azetidin-3-ylmethyl)amino)methyl)-2-((4-benzylphenoxy)methyl)pyrido[3,4-d]pyrimidin-4(3H)-one]
6 | 20 to 50 | O=c1[nH]c(COc2ccc(Cc3ccccc3)cc2)nc2c(CNC[C@H]3CCCO3)nccc12 [Example 148, (R)-2-((4-benzylphenoxy)methyl)-8-((((tetrahydrofuran-2-yl)methyl)amino)methyl)pyrido[3,4-d]pyrimidin-4(3H)-one]
7 | > 50 | O=c1[nH]c(COc2ccc(Cc3ccccc3)cc2)nc2c(CNCC3CCOCC3)nccc12 [Example 149, 2-((4-benzylphenoxy)methyl)-8-((((tetrahydro-2H-pyran-4-yl)methyl)amino)methyl)pyrido[3,4-d]pyrimidin-4(3H)-one]
8 | > 50 | O=c1[nH]c(COc2ccc(Cc3ccccc3)cc2)nc2c(CNC[C@H]3CCNC3)nccc12 [Example 150, (S)-2-((4-benzylphenoxy)methyl)-8-(((pyrrolidin-3-ylmethyl)amino)methyl)pyrido[3,4-d]pyrimidin-4(3H)-one]
9 | 20 to 50 | O=c1[nH]c(COc2ccc(Cc3ccccc3)cc2)nc2c(CNC[C@@H]3CCNC3)nccc12 [Example 151, (R)-2-((4-benzylphenoxy)methyl)-8-(((pyrrolidin-3-ylmethyl)amino)methyl)pyrido[3,4-d]pyrimidin-4(3H)-one]
10 | > 50 | CN1CCC(CNCc2nccc3c(=O)[nH]c(COc4ccc(Cc5ccccc5)cc4)nc23)CC1 [Example 152, 2-((4-benzylphenoxy)methyl)-8-((((1-methylpiperidin-4-yl)methyl)amino)methyl)pyrido[3,4-d]pyrimidin-4(3H)-one]
11 | > 50 | O=c1[nH]c(COc2ccc(Cc3ccccc3)cc2)nc2c(CNC[C@H]3CCCNC3)nccc12 [Example 153, (S)-2-((4-benzylphenoxy)methyl)-8-(((piperidin-3-ylmethyl)amino)methyl)pyrido[3,4-d]pyrimidin-4(3H)-one]
12 | > 50 | O=c1[nH]c(COc2ccc(Cc3ccccc3)cc2)nc2c(CNC[C@@H]3CCCNC3)nccc12 [Example 154, (R)-2-((4-benzylphenoxy)methyl)-8-(((piperidin-3-ylmethyl)amino)methyl)pyrido[3,4-d]pyrimidin-4(3H)-one]
13 | 20 to 50 | N[C@H]1CC[C@H](NCc2nccc3c(=O)[nH]c(COc4ccc(Cc5ccccc5)cc4)nc23)CC1 [Example 155, 8-((((1r,4r)-4-aminocyclohexyl)amino)methyl)-2-((4-benzylphenoxy)methyl)pyrido[3,4-d]pyrimidin-4(3H)-one]
14 | 20 to 50 | O=c1[nH]c(COc2ccc(Cc3ccccc3)cc2)nc2c(CNCCN3CCOCC3)nccc12 [Example 157, 2-((4-benzylphenoxy)methyl)-8-(((2-morpholinoethyl)amino)methyl)pyrido[3,4-d]pyrimidin-4(3H)-one]
15 | > 50 | O=c1[nH]c(COc2ccc(F)c(Cl)c2)nc2c(CNC[C@H]3CCNC3)nccc12 [Example 158, (S)-2-((3-chloro-4-fluorophenoxy)methyl)-8-(((pyrrolidin-3-ylmethyl)amino)methyl)pyrido[3,4-d]pyrimidin-4(3H)-one]
16 | > 50 | CN1CCC(CNCc2nccc3c(=O)[nH]c(COc4ccc(F)c(Cl)c4)nc23)C1 (centres unmarked) [Example 159, 2-((3-chloro-4-fluorophenoxy)methyl)-8-((((1-methylpyrrolidin-3-yl)methyl)amino)methyl)pyrido[3,4-d]pyrimidin-4(3H)-one]
17 | > 50 | CN1CCC(CNCc2nccc3c(=O)[nH]c(COc4ccc(F)c(Cl)c4)nc23)CC1 [Example 160, 2-((3-chloro-4-fluorophenoxy)methyl)-8-((((1-methylpiperidin-4-yl)methyl)amino)methyl)pyrido[3,4-d]pyrimidin-4(3H)-one]
18 | < 20 | O=c1[nH]c(COc2ccc(F)c(Cl)c2)nc2c(CNCC3CCOCC3)nccc12 [Example 161, 2-((3-chloro-4-fluorophenoxy)methyl)-8-((((tetrahydro-2H-pyran-4-yl)methyl)amino)methyl)pyrido[3,4-d]pyrimidin-4(3H)-one]
19 | < 20 | O=c1[nH]c(COc2ccc(F)c(Cl)c2)nc2c(CNCC3CCCOC3)nccc12 (centres unmarked) [Example 162, 2-((3-chloro-4-fluorophenoxy)methyl)-8-((((tetrahydro-2H-pyran-3-yl)methyl)amino)methyl)pyrido[3,4-d]pyrimidin-4(3H)-one]
20 | < 20 | O=c1[nH]c(COc2ccc(F)c(Cl)c2)nc2c(CNCC3CCOC3)nccc12 (centres unmarked) [Example 163, 2-((3-chloro-4-fluorophenoxy)methyl)-8-((((tetrahydrofuran-3-yl)methyl)amino)methyl)pyrido[3,4-d]pyrimidin-4(3H)-one]
21 | 20 to 50 | O=c1[nH]c(COc2ccc(F)c(Cl)c2)nc2c(CNCCN3CCOCC3)nccc12 [Example 164, 2-((3-chloro-4-fluorophenoxy)methyl)-8-(((2-morpholinoethyl)amino)methyl)pyrido[3,4-d]pyrimidin-4(3H)-one]
22 | > 50 | O=c1[nH]c(COc2ccc(F)c(Cl)c2)nc2c(CNCCCn3ccnc3)nccc12 [Example 165, 8-(((3-(1H-imidazol-1-yl)propyl)amino)methyl)-2-((3-chloro-4-fluorophenoxy)methyl)pyrido[3,4-d]pyrimidin-4(3H)-one]
23 | 20 to 50 | Cc1cnc(CNCc2nccc3c(=O)[nH]c(COc4ccc(F)c(Cl)c4)nc23)cn1 [Example 166, 2-((3-chloro-4-fluorophenoxy)methyl)-8-((((5-methylpyrazin-2-yl)methyl)amino)methyl)pyrido[3,4-d]pyrimidin-4(3H)-one]
24 | > 50 | CC(C)N1CCC(CNCc2nccc3c(=O)[nH]c(COc4ccc(F)c(Cl)c4)nc23)CC1 [Example 168, 2-((3-chloro-4-fluorophenoxy)methyl)-8-((((1-isopropylpiperidin-4-yl)methyl)amino)methyl)pyrido[3,4-d]pyrimidin-4(3H)-one]
25 | > 50 | O=c1[nH]c(COc2ccc(F)c(Cl)c2)nc2c(CNCC3CCN(C4CCCC4)CC3)nccc12 [Example 169, 2-((3-chloro-4-fluorophenoxy)methyl)-8-((((1-cyclopentylpiperidin-4-yl)methyl)amino)methyl)pyrido[3,4-d]pyrimidin-4(3H)-one]
26 | 20 to 50 | O=c1[nH]c(COc2ccc(F)c(Cl)c2)nc2c(CNCc3ccccn3)nccc12 [Example 170, 2-((3-chloro-4-fluorophenoxy)methyl)-8-(((pyridin-2-ylmethyl)amino)methyl)pyrido[3,4-d]pyrimidin-4(3H)-one]
